Molecules are shown by their SMILES.

From patent publication US7151105B2, “Inhibitors of Hepatitis C virus RNA-dependent RNA polymerase, and compositions and treatments using the same” (Agouron Pharmaceuticals, Inc., priority 2004, dated 2006) come the findings set out here.

T1 sequence (P26663 2420-3010): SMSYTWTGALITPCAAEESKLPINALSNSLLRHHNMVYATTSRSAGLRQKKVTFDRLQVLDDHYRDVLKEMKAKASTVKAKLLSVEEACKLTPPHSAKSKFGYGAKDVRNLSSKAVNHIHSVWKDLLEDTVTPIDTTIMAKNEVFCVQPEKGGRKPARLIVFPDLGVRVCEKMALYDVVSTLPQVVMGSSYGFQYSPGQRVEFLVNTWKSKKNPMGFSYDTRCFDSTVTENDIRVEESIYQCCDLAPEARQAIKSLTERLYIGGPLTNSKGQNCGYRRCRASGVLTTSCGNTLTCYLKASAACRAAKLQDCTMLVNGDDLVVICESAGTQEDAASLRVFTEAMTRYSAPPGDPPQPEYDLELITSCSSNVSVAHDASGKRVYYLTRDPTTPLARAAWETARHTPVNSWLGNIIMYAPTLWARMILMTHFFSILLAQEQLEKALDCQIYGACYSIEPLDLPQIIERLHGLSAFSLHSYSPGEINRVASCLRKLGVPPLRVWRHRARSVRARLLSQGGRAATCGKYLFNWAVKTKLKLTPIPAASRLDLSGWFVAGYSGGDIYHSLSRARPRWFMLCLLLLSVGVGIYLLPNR

The assay has as its target T1, Recombinant HCV polymerase (Hepatitis C virus genotype 1b, UniProt P26663).
T1 construct: Recombinant HCV polymerase was tested for its ability to perform primer/template-directed transcription
Nature of the assay: biochemical. Conditions: inhibition of polymerase-directed transcription; 30 min at 30° C; 30 nM enzyme; cpm data in triplicate. How it is done:
The compounds described herein were tested for activity with HCV polymerase. Recombinant HCV polymerase was tested for its ability to perform primer/template-directed transcription in assays that contained 30 mM tris-HCl pH 7.2, 10 mM MgCl2, 20 mM NaCl, 1 mM Dithiothreitol (DTT), 0.05% Tween-20, 1% glycerol, 5 pmoles biotin-dG12 (primer), 0.5 pmoles poly(rC)300 (template), 1 μM GTP, 0.1–0.3 uCi α-^32P-GTP, and 2.5 pmoles (0.15 μg) HCV polymerase protein in a final volume of 75 μL. Reactions were initiated by addition of enzyme and incubated 30 minutes at 30° C. Reactions were stopped by addition of 33 mM EDTA, and polynucleotide products were collected by filtration through Diethylaminoethyl (DE) Filtermat papers (Wallac). Unincorporated triphosphate was removed by washing the filters with 5% dibasic sodium phosphate. The filters were counted in a Packard Tri-Lux Microbeta scintillation counter (Packard Bioscience, Meriden, Conn.). Compounds to be tested were added at various concentrations, e.g., 1 μm to 50 μm, from stocks in 10% DMSO-water (final DMSO is 1% in reaction).
IC50 values were estimated from the primary cpm data (collected in triplicate) using the formula: cpm (I)=cpm (no inhibitor)(1−([I]/([I]+IC50))). […] A percent inhibition value is expressed for a compound where it was impractical to calculate an IC50 value with available data.
One may read the IC50 as the midpoint of a concentration-inhibition curve. In the case of `Cc1nc(CC2=C(O)CC(CCc3ccc(C(C)(C)C#N)c(F)c3)(C3CCCC3)OC2=O)n(C)n1` (stereo not drawn) [A(84), 2-[4-(2-{2-Cyclopentyl-5-[(1,3-dimethyl-1H-1,2,4-triazol-5-yl)methyl]-4-hydroxy-6-oxo-3,6-dihydro-2H-pyran-2-yl}ethyl)-2-fluorophenyl]-2-methylpropanenitrile], the IC50 is 72 nM. Take `CCc1cc(CC[C@]2(C3CCCC3)CC(O)=C(Cc3nc4ncc(C)cn4n3)C(=O)O2)c(O)cc1O` [A(21), (6R)-6-cyclopentyl-6-[2-(5-ethyl-2,4dihydroxyphenyl)ethyl]-4-hydroxy-3-[(6-methyl[1,2,4]triazolo[1,5-a]pyrimidin-2-yl)methyl]-5,6-dihydro-2H-pyran-2-one]: the IC50 is 1 nM.

For the molecule `Cc1cc(C)n2nc(CC3=C(O)CC(CCc4ccc(O)c(CC(F)(F)F)c4)(C4CCCC4)OC3=O)nc2n1` (single isomer, unassigned) [A(74), 6-Cyclopentyl-3-[(5,7-dimethyl[1,2,4]triazolo[1,5-a]pyrimidin-2-yl)methyl]-4-hydroxy-6-{2-[4-hydroxy-3-(2,2,2-trifluoroethyl)phenyl]ethyl}-5,6-dihydro-2H-pyran-2-one], the IC50 amounted to 3 nM. With `COC(=O)c1ccc(CCC2(C3CCCC3)CC(O)=C(Cc3nc4nc(C)cc(C)n4n3)C(=O)O2)cc1Cl` (stereo not drawn) [B(9), Methyl 2-chloro-4-(2-{2-cyclopentyl-5-[(5,7-dimethyl[1,2,4]triazolo[1,5-a]pyrimidin-2-yl)methyl]-4-hydroxy-6-oxo-3,6-dihydro-2H-pyran-2-yl}ethyl)benzoate], the IC50 stood at 6 nM.

Consider `Cc1cc(C)n2nc(CC3=C(O)CC(CCc4cnn(C(C)C)c4)(C4CCCC4)OC3=O)nc2n1` (stereo not drawn) [A(62), 6-Cyclopentyl-3-[(5,7-dimethyl[1,2,4]triazolo[1,5-a]pyrimidin-2-yl)methyl]-4-hydroxy-6-[2-(1-isopropyl-1H-pyrazol-4-yl)ethyl]-5,6-dihydro-2H-pyran-2-one], for which the 50% inhibitory concentration (IC50) stood at 60 nM. In the case of `Cc1cc(C)n2nc(CC3=C(O)CC(CCc4ccc(C(=O)O)c(Cl)c4)(C4CCCC4)OC3=O)nc2n1` (stereo not drawn) [B(12)] it was 110 nM; in that of `CCc1cc(CCC2(C3CCCC3)CC(O)=C(Cc3nc4nc(C)cc(C)n4n3)C(=O)O2)ccc1-c1ncco1` (single isomer, unassigned; enantiomer 2) [A(139), Enantiomer 2 of 6-Cyclopentyl-3-[(5,7-dimethyl[1,2,4]triazolo[1,5-a]pyrimidin-2-yl)methyl]-6-{2-[3-ethyl-4-(1,3-oxazol-2-yl)phenyl]ethyl}-4-hydroxy-5,6-dihydro-2H-pyran-2-one], 4 nM; in that of `CCCOc1cc(O)c(CCC2(C3CCCC3)CC(O)=C(Cc3nc4ncc(C)cn4n3)C(=O)O2)cc1CC` (stereo not drawn) [A(50), 6-Cyclopentyl-6-[2-(5-ethyl-2-hydroxy-4-propoxyphenyl)ethyl]-4-hydroxy-3-[(6-methyl[1,2,4]triazolo[1,5-a]pyrimidin-2-yl)methyl]-5,6-dihydro-2H-pyran-2-one], 4 nM. In the case of `Cc1cc(C)n2nc(CC3=C(O)CC(CCc4ccc(C(=O)O)c(F)c4)(C4CCCC4)OC3=O)nc2n1` (stereo not drawn) [B(11), 4-(2-{2-Cyclopentyl-5-[(5,7-dimethyl[1,2,4]triazolo[1,5-a]pyrimidin-2-yl)methyl]-4-hydroxy-6-oxo-3,6dihydro-2H-pyran-2-yl}ethyl)-2-fluorobenzoic acid] it was 260 nM; in that of `CCc1ccc(OC)c(CCC2(C3CCCC3)CC(=O)CC(=O)O2)n1` (stereo not drawn) [A(5), 6-Cyclopentyl-6-[2-(6-ethyl-3-methoxypyridin-2-yl)ethyl]dihydro-2H-pyran-2,4(3H)-dione], 8600 nM; in that of `CC(C)(O)c1ccc(CCC2(C3CCCC3)CC(O)=C(Cc3nc4ncc(Cl)cn4n3)C(=O)O2)cc1Cl` (stereo not drawn) [B(38), 6-{2-[3-Chloro-4-(1-hydroxy-1-methylethyl)phenyl]ethyl}-3-[(6-chloro[1,2,4]triazolo[1,5-a]pyrimidin-2-yl)methyl]-6-cyclopentyl-4-hydroxy-5,6-dihydro-2H-pyran-2-one], 67 nM. `Cc1cc(C)n2nc(CC3=C(O)CC(CCc4ccc(C(C)(C)O)c(C)c4)(C4CCCC4)OC3=O)nc2n1` (stereo not drawn) [B(32), 6-Cyclopentyl-3-[(5,7-dimethyl[1,2,4]triazolo[1,5-a]pyrimidin-2-yl)methyl]-4-hydroxy-6-{2-[4-(1-hydroxy-1-methylethyl)-3-methylphenyl]ethyl}-5,6-dihydro-2H-pyran-2-one]: the IC50 is 91 nM.

For `Cc1cc(C)n2nc(CC3=C(O)CC(CCc4ccc([C@@H](C)NS(C)(=O)=O)cc4)(C4CCCC4)OC3=O)nc2n1` (stereo partly drawn) [A(83)], the IC50 was 38 nM.

In the case of `CCc1cc(CCC2(C3CCCC3)CC(O)=C(Cc3nc4nc(C)cc(C)n4n3)C(=O)O2)c(C)nc1N` (stereo not drawn) [A(124), 6-[2-(6-Amino-5-ethyl-2-methylpyridin-3-yl)ethyl]-6-cyclopentyl-3-[(5,7-dimethyl[1,2,4]triazolo[1,5-a]pyrimidin-2-yl)methyl]-4-hydroxy-5,6-dihydro-2H-pyran-2-one], the IC50 was determined as 8 nM. For `CCn1nc(C)c(CC2=C(O)CC(CCc3ccc(OC(C)C)c(Cl)c3)(C3CCCC3)OC2=O)c1C` (stereo not drawn) [B(19), 6-[2-(3-chloro-4-isopropoxyphenyl)ethyl]-6-cyclopentyl-3-[(1-ethyl-3,5-dimethyl-1H-pyrazol-4-yl)methyl]-4-hydroxy-5,6-dihydro-2H-pyran-2-one] the value was 1100 nM. In the case of `C[C@@H](NC(=O)OC(C)(C)C)c1ccc(CCC2(C3CCCC3)CC(=O)CC(=O)O2)cc1` (stereo partly drawn) [A(90)] it was 43000 nM. In the case of `CCc1cc(CCC2(C3CCCC3)CC(O)=C(Cc3nc4nc(C)cc(C)n4n3)C(=O)O2)c(OC)cn1` (stereo not drawn) [A(3), 6-Cyclopentyl-3-[(5,7-dimethyl[1,2,4]triazolo[1,5-a]pyrimidin-2-yl)methyl]-6-[2-(2-ethyl-5-methoxypyridin-4-yl)ethyl]-4-hydroxy-5,6-dihydro-2H-pyran-2-one] it was 1 nM; in that of `CC(C)(C#N)c1ccc(CCC2(C3CCCC3)CC(O)=C(Cc3cn4nccnc4n3)C(=O)O2)cc1Cl` (stereo not drawn) [B(14), 2-(2-Chloro-4-{2-[2-cyclopentyl-4-hydroxy-5-(imidazo[1,2-b][1,2,4]triazin-6-ylmethyl)-6-oxo-3,6-dihydro-2H-pyran-2-yl]ethyl}phenyl)-2-methylpropanenitrile], 26 nM; in that of `CCc1cncc(CCC2(C3CCCC3)CC(O)=C(Cc3nc4nc(C)cc(C)n4n3)C(=O)O2)c1` (stereo not drawn) [A(14), 6-Cyclopentyl-3-[(5,7-dimethyl[1,2,4]triazolo[1,5-a]pyrimidin-2-yl)methyl]-6-[2-(5-ethylpyridin-3-yl)ethyl]-4-hydroxy-5,6dihydro-2H-pyran-2-one], 8 nM. Regarding `CCc1cc(CCC2(C3CCCC3)CC(O)=C(Cc3nc4nc(C)cc(C)n4n3)C(=O)O2)ccc1-c1ncco1` (single isomer, unassigned; enantiomer 1) [A(138), Enantiomer 1 of 6-Cyclopentyl-3-[(5,7-dimethyl[1,2,4]triazolo[1,5-a]pyrimidin-2-yl)methyl]-6-{2-[3-ethyl-4-(1,3-oxazol-2-yl)phenyl]ethyl}-4-hydroxy-5,6-dihydro-2H-pyran-2-one], the IC50 came out at 10 nM. For `CS(=O)(=O)c1ccc(CCC2(C3CCCC3)CC(=O)CC(=O)O2)cc1C(F)(F)F` (stereo not drawn) [B(3)] the value was 6400 nM.
